Organism: Rattus norvegicus
Experiment: Open TG-GATES - Regimen: Daily Repeat
Assay type: toxicity, organism-based, Sprague-Dawley
Design: regimen Daily Repeat, gender Male, age 6 weeks
Conditions: in vivo, po, route gavage; for gamma-GTP / ALP / ALT / AST / BUN / CRE / Ca / Cl / DBIL / GLC / IP / K / LDH / Na / PL / RALB / TBIL / TC / TG / TP: tissue Plasma; for APTT / Bas / Eos / Fbg / Hb / Ht / Lym / MCH / MCHC / MCV / Mono / Neu / PT / Plat / RBC / Ret / WBC: tissue Blood; for KIDNEY_L / KIDNEY_R / KIDNEY_TOTAL: tissue Kidney; for LIVER: tissue Liver
[1] = 100 mg/kg, 72 h, dose level Low, time 3 day
[2] = 100 mg/kg, […], dose level Low, time 7 day
[3] = 100 mg/kg, […], dose level Low, time 14 day
[4] = 100 mg/kg, […], dose level Low, time 28 day

COC(=O)C1=C(C)NC(C)=C(C(=O)OC)C1c1ccccc1[N+](=O)[O-] [NIFEDIPINE]
gamma-GTP (0 mg/kg, […], dose level Control, time 28 day): 0.8 IU/L | TERMINAL_BW [1]: 223 g | APTT [1]: 17.6 s | Bas [1]: 0% | Eos [1]: 1% | Fbg [1]: 281.6 mg/dL | Hb [1]: 13.6 g/dL | Ht [1]: 42.3% | Lym [1]: 71.4% | MCH [1]: 20.7 pg | MCHC [1]: 32.3% | MCV [1]: 64 fL | Mono [1]: 3.4% | Neu [1]: 23.6% | PT [1]: 13.8 s | Plat [1]: 130.7 x10_4/uL | RBC [1]: 660.2 x10_4/ul | Ret [1]: 9.2% | WBC [1]: 96 x10_2/uL | KIDNEY_L [1]: 0.9 g | KIDNEY_R [1]: 0.9 g | KIDNEY_TOTAL [1]: 1.9 g | LIVER [1]: 11 g | ALP [1]: 1508 IU/L | ALT [1]: 46.6 IU/L | AST [1]: 65.8 IU/L | BUN [1]: 15 mg/dL | CRE [1]: 0.2 mg/dL | Ca [1]: 10.9 mg/dL | Cl [1]: 107 meq/L | DBIL [1]: 0.014 mg/dL | GLC [1]: 173.4 mg/dL | IP [1]: 6.8 mg/dL | K [1]: 4.5 meq/L | LDH [1]: 88.6 IU/L | Na [1]: 143.2 meq/L | PL [1]: 152 mg/dL | RALB [1]: 2.7 g/dL | TBIL [1]: 0.028 mg/dL | TC [1]: 82.2 mg/dL | TG [1]: 98.8 mg/dL | TP [1]: 5.7 g/dL | gamma-GTP [1]: 1 IU/L | TERMINAL_BW [2]: 261.8 g | TERMINAL_BW [3]: 322.2 g | TERMINAL_BW [4]: 378.4 g | APTT [2]: 14.8 s | Bas [2]: 0.2% | Eos [2]: 1.4% | Fbg [2]: 283.4 mg/dL | Hb [2]: 13.8 g/dL | Ht [2]: 42.1% | Lym [2]: 73% | MCH [2]: 20.9 pg | MCHC [2]: 32.8% | MCV [2]: 63.8 fL | Mono [2]: 3% | Neu [2]: 21.8% | PT [2]: 13.7 s | Plat [2]: 125.1 x10_4/uL | RBC [2]: 659.6 x10_4/ul | Ret [2]: 6.8% | WBC [2]: 105.6 x10_2/uL | APTT [3]: 19 s | Bas [3]: 0.2% | Eos [3]: 1% | Fbg [3]: 260.4 mg/dL | Hb [3]: 14.5 g/dL | Ht [3]: 43.7% | Lym [3]: 72.4% | MCH [3]: 21.1 pg | MCHC [3]: 33.2% | MCV [3]: 63.6 fL | Mono [3]: 2.8% | PT [3]: 14 s | Plat [3]: 113.8 x10_4/uL | RBC [3]: 688 x10_4/ul | Ret [3]: 5.4% | WBC [3]: 110.8 x10_2/uL | APTT [4]: 17.6 s | Bas [4]: 0% | Eos [4]: 1% | Fbg [4]: 281.6 mg/dL | Hb [4]: 13.6 g/dL | Ht [4]: 42.3% | Lym [4]: 71.4% | MCH [4]: 20.7 pg | MCHC [4]: 32.3% | MCV [4]: 64 fL | Mono [4]: 3.4% | Neu [4]: 23.6% | PT [4]: 13.8 s | Plat [4]: 130.7 x10_4/uL | RBC [4]: 660.2 x10_4/ul | Ret [4]: 9.2% | WBC [4]: 96 x10_2/uL | KIDNEY_L [2]: 1.1 g | KIDNEY_R [2]: 1.1 g | KIDNEY_TOTAL [2]: 2.1 g | KIDNEY_L [3]: 1.2 g | KIDNEY_R [3]: 1.2 g | KIDNEY_TOTAL [3]: 2.5 g | KIDNEY_L [4]: 1.3 g | KIDNEY_R [4]: 1.3 g | KIDNEY_TOTAL [4]: 2.6 g | LIVER [2]: 13.2 g | LIVER [3]: 15 g | LIVER [4]: 15.4 g | ALP [2]: 1407 IU/L | ALT [2]: 47 IU/L | AST [2]: 67.4 IU/L | BUN [2]: 17.4 mg/dL | CRE [2]: 0.2 mg/dL | Ca [2]: 10.7 mg/dL | Cl [2]: 106.2 meq/L | DBIL [2]: 0.014 mg/dL | GLC [2]: 174.8 mg/dL | IP [2]: 6.8 mg/dL | K [2]: 4.2 meq/L | LDH [2]: 86.4 IU/L | Na [2]: 143.8 meq/L | PL [2]: 144 mg/dL | RALB [2]: 2.7 g/dL | TBIL [2]: 0.028 mg/dL | TC [2]: 77.4 mg/dL | TG [2]: 93.4 mg/dL | TP [2]: 5.9 g/dL | gamma-GTP [2]: 1 IU/L | ALP [3]: 1646.4 IU/L | ALT [3]: 44.4 IU/L | AST [3]: 71.4 IU/L | BUN [3]: 17.6 mg/dL | CRE [3]: 0.2 mg/dL | Ca [3]: 11 mg/dL | Cl [3]: 105.8 meq/L | DBIL [3]: 0.012 mg/dL | GLC [3]: 177.4 mg/dL | IP [3]: 6.7 mg/dL | K [3]: 4.2 meq/L | LDH [3]: 46.2 IU/L | Na [3]: 143.2 meq/L | PL [3]: 149.6 mg/dL | RALB [3]: 2.7 g/dL | TBIL [3]: 0.026 mg/dL | TC [3]: 73.6 mg/dL | TP [3]: 5.9 g/dL | gamma-GTP [3]: 1 IU/L | ALP [4]: 1032.8 IU/L | ALT [4]: 39.6 IU/L | AST [4]: 71.2 IU/L | BUN [4]: 17.2 mg/dL | CRE [4]: 0.3 mg/dL | Ca [4]: 10.4 mg/dL | Cl [4]: 107.4 meq/L | DBIL [4]: 0.012 mg/dL | GLC [4]: 167.8 mg/dL | IP [4]: 5.6 mg/dL | K [4]: 3.9 meq/L | LDH [4]: 61.8 IU/L | Na [4]: 143.8 meq/L | PL [4]: 135 mg/dL | RALB [4]: 2.8 g/dL | TBIL [4]: 0.024 mg/dL | TC [4]: 64.6 mg/dL | TG [4]: 117.8 mg/dL | TP [4]: 6.1 g/dL
